Data taken from ChEMBL document CHEMBL5241111, “Non-steroidal anti-inflammatory drugs: recent advances in the use of synthetic COX-2 inhibitors” (RSC Med Chem, 2022).

Legend:
[1] = target: T1, Polyunsaturated fatty acid 5-lipoxygenase (Homo sapiens, UniProt P09917); experiment: Inhibition of 5-LOX (unknown origin)
T1 sequence (P09917 whole entry): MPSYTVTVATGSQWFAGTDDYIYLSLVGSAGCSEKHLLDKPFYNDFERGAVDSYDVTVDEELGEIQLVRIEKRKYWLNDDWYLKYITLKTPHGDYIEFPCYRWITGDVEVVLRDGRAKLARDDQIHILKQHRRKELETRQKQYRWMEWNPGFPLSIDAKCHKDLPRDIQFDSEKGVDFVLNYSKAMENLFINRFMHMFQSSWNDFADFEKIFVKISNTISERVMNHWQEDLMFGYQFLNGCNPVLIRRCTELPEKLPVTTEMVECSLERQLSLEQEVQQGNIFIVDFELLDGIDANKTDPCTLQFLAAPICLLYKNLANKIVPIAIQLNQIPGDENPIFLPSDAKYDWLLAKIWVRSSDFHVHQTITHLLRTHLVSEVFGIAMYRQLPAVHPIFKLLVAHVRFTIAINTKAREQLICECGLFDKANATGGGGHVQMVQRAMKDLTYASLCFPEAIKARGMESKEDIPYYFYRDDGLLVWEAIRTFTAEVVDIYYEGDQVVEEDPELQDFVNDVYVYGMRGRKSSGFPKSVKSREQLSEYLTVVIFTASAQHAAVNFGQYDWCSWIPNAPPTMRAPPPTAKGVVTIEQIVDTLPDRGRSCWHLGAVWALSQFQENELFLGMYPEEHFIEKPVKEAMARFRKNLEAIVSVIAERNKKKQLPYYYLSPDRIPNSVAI

[2] = target: T2, Prostaglandin G/H synthase 2 (Homo sapiens, UniProt P35354); experiment: Inhibition of human COX-2 using arachidonic acid as substrate preincubated for 10 mins followed by substrate addition and measured after 30 secs by ELISA
T2 sequence (P35354 whole entry): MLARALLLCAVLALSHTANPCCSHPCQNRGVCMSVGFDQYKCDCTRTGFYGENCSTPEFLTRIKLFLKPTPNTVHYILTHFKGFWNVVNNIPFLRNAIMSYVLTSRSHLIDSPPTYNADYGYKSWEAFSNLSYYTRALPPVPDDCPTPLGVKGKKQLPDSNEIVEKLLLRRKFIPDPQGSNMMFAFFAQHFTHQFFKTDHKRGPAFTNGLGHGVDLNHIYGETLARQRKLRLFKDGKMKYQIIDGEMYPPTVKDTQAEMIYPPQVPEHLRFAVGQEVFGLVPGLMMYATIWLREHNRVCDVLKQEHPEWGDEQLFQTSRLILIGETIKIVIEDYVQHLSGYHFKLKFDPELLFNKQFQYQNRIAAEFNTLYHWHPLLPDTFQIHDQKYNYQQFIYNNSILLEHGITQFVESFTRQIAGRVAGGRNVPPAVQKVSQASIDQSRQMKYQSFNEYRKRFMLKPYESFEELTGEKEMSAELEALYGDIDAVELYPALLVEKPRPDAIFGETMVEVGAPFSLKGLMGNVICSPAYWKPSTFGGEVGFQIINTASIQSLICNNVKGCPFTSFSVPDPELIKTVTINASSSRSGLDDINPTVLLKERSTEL

[3] = target: T2, Prostaglandin G/H synthase 2; experiment: Inhibition of human COX-2 using arachidonic acid as substrate preincubated for 5 mins followed by substrate addition and measured after 2 mins by colorimetric assay
Alpha-glucosidase = Alpha-glucosidase (Saccharomyces cerevisiae S288c, UniProt P53341+P38158+P07265); experiment: Inhibition of Saccharomyces cerevisiae alpha-glucosidase using PNPG as substrate preincubated for 10 mins followed by substrate addition by spectrophotometric method; format: protein assay
[4] = target: COX-1/COX-2 (Homo sapiens) (UniProt P35354+P23219); experiment: Selectivity index, ratio of IC50 for inhibition of COX-1 (unknown origin) to IC50 for inhibition of COX-2 (unknown origin); format: protein assay
[5] = target: T2, Prostaglandin G/H synthase 2; experiment: Inhibition of human COX-2 using arachidonic acid as substrate incubated for 30 secs by ELISA
[6] = Inhibition of soybean 5-LOX using linoleic acid as substrate preincubated for 5 mins followed by substrate addition and measured after 3 mins; set-up: species or system Glycine max
[7] = target: cGMP-specific 3',5'-cyclic phosphodiesterase (Homo sapiens) (UniProt O76074); experiment: Inhibition of human PDE5 using cGMP as substrate at 10 uM preincubated for 5 mins followed by substrate addition and measured after 30 mins by HPLC analysis relative to control; conditions: time 35.0 min
[8] = target: T2, Prostaglandin G/H synthase 2; experiment: Inhibition of COX-2 (unknown origin)
[9] = target: T2, Prostaglandin G/H synthase 2; experiment: Inhibition of human recombinant COX-2 using arachidonic acid as substrate preincubated for 5 mins followed by substrate addition and measured after 10 mins by microplate reader analysis
Rattus norvegicus = experiment: Antiinflammatory activity against rat model of carrageenan induced paw edema assessed as inhibition of edema measured after 1 to 6 hrs relative to control; format: functional; conditions: time 1-6 hrs
Dihydrofolate reductase = target: T3, Dihydrofolate reductase (Homo sapiens, UniProt P00374); experiment: Inhibition of DHFR (unknown origin)
T3 sequence (P00374 whole entry): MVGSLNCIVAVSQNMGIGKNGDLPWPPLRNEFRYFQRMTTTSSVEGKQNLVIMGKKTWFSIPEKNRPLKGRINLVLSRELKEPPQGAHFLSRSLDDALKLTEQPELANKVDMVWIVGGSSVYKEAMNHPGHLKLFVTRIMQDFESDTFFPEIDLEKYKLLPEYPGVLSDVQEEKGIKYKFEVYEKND

`COc1ccccc1/C=c1\c(=O)[nH]n2c(=O)c3ccccc3nc12` gave an IC50 [1] of 0.6 µM and an IC50 [2] of 0.047 µM.

`CCCCCC1C(C)=c2c(OCc3nnc(SCC(=O)N4CCN(c5ncccn5)CC4)o3)nn(C)c(=O)c2=C1C` (stereo not given) gave an IC50 [3] of 6.8 µM.

`CC(=O)Oc1cc2oc(-c3ccc(F)cc3)cc2cc1-c1c[se]nn1` gave an IC50 (Alpha-glucosidase) of 1.03 µM.

Work on `NS(=O)(=O)c1ccc(C(=O)OCCn2cc(-c3ccc(C(F)(F)F)cc3)nn2)cc1` yielded a Ratio IC50 [4] of 0.008 and an IC50 [5] of 0.131 µM.

`CC(=O)Oc1cc2oc(-c3ccccc3)cc2cc1-c1c[se]nn1` gave an IC50 (Alpha-glucosidase) of 1.03 µM.

`COc1ccc2cc([C@H](C)C(=O)N[C@@H](CCSC)C(=O)N/C(=C\c3ccccc3)C(=O)O)ccc2c1` showed an IC50 [6] of 48.9 µM.

Work on `COc1ccc2cc([C@H](C)C(=O)N[C@@H](CCCCN)C(=O)N/C(=C\c3ccccc3)C(=O)O)ccc2c1` yielded an IC50 [6] of 48.9 µM.

With `C/C(=C/C(=O)Nc1nccs1)Nc1ccccc1` the inhibition [7] was 100%.

With `COc1cc(/C=c2\c(=O)[nH]n3c(=O)c4ccccc4nc23)cc(OC)c1OC` the IC50 [1] was 0.6 µM.

Molecule `Cc1c(C(=O)NN)nnn1-c1ccc(S(N)(=O)=O)cc1` has a Ratio IC50 [4] of 1.95 and an IC50 [8] of 2.92 µM.

`C/C(=N\NC(=O)c1nnn(-c2ccc(S(N)(=O)=O)cc2)c1C)c1cc2ccccc2o1` gave a Ratio IC50 [4] of 1.95 and an IC50 [8] of 2.61 µM.

For `NS(=O)(=O)c1ccc(-n2cc(-c3ccc(C(F)(F)F)cc3)nn2)cc1`, the Ratio IC50 [4] was 0.008 and the IC50 [5] was 3.32 µM.

In the case of `O=c1[nH]n2c(=O)c3ccccc3nc2/c1=C/c1ccccc1`, the IC50 [1] is reported as 0.6 µM and the IC50 [2] is reported as 0.047 µM.

With `CC1=NN(c2ccc(S(N)(=O)=O)cc2)C(=O)/C1=C\c1ccc(F)cc1C` the IC50 [9] was 0.15 µM.

Work on `CC1=NN(c2ccc(S(N)(=O)=O)cc2)C(=O)/C1=C\c1sccc1C` yielded an IC50 [9] of 0.15 µM.

For `CC(=O)c1nnn(-c2ccc(S(N)(=O)=O)cc2)c1C`, the Ratio IC50 [4] was 1.95 and the IC50 [8] was 2.61 µM.

In the case of `COc1ccc(N/C(C)=C\C(=O)Nc2nccs2)cc1`, the inhibition [7] is reported as 100%.

For `CS(=O)(=O)c1ccc(-c2cc(-c3ccc(F)cc3)n(-c3ccc(S(N)(=O)=O)cc3)n2)cc1`, the “inhibition (INH)” value (Rattus norvegicus) was 42.1%.

`COC(=O)/C(=C/c1ccccc1)NC(=O)[C@H](Cc1ccc(O)cc1)NC(=O)[C@@H](C)c1ccc2cc(OC)ccc2c1` gave an IC50 [6] of 48.9 µM.

In the case of `CC1=c2c(OCc3nnc(SCC(=O)N4CCN(c5ncccn5)CC4)o3)nn(C)c(=O)c2=C(C)C1c1ccccc1` (stereo not given), the IC50 [3] is reported as 6.8 µM.

Work on `Nc1ccc(S(=O)(=O)Nc2ncccn2)cc1` [SULFADIAZINE] yielded an IC50 (Dihydrofolate reductase) of 0.13 µM.

In the case of `NS(=O)(=O)c1ccc(-c2nn(-c3ccc([N+](=O)[O-])cc3)cc2C=O)cc1`, the Ratio IC50 [4] is reported as 0.008 and the IC50 [5] is reported as 0.017 µM.

`CCC(=O)c1nnn(-c2ccc(S(N)(=O)=O)cc2)c1C` showed a Ratio IC50 [4] of 1.95 and an IC50 [8] of 2.61 µM.

In the case of `C/C(=C/C(=O)Nc1nccs1)Nc1ccc(Cl)cc1`, the inhibition [7] is reported as 100%.

`COc1ccc(-c2cc3cc(-c4c[se]nn4)c(OC(C)=O)cc3o2)cc1` gave an IC50 (Alpha-glucosidase) of 1.03 µM.

In the case of `O=c1[nH]n2c(=O)c3ccccc3nc2/c1=C/c1cccc(F)c1`, the IC50 [1] is reported as 0.6 µM and the IC50 [2] is reported as 0.047 µM.

In the case of `COc1ccc2cc([C@H](C)C(=O)N[C@@H](Cc3c[nH]c4ccccc34)C(=O)N/C(=C\c3ccccc3)C(=O)O)ccc2c1`, the IC50 [6] is reported as 48.9 µM.

In the case of `COC(=O)/C(=C/c1ccccc1)NC(=O)[C@H](CC(=O)O)NC(=O)[C@@H](C)c1ccc2cc(OC)ccc2c1`, the IC50 [6] is reported as 48.9 µM.

`Cc1c(C2=NNC(c3ccccc3)C2)nnn1-c1ccc(S(N)(=O)=O)cc1` (stereo not given) showed a Ratio IC50 [4] of 1.95 and an IC50 [8] of 2.61 µM.
